# From patent publication US9995734B2, “Human T cell line assay for evaluating the immunologic identity of glatiramer acetate preparations” (Mylan Inc., priority 2013, dated 2018)
# System: Donor 3 COP T-Cell Lines
# Experiment: ATP proliferation assay (CellTiter Glo), Donor 3 COP T-cell lines, incl. reactivity to non-canonical GA peptides
# Type: cell-based, human
# Conditions: for ATP proliferation assay: Day 14; for Reactivity (proliferation), Mean: Day 54 of culture
substance,measurement,setting,value
glatiramer acetate [COP],ATP proliferation assay,"165-D11C, 10 μg/mL, control 13302",82759 RLU
same,ATP proliferation assay,"165-E3C, 10 μg/mL, control 12219",69893 RLU
same,ATP proliferation assay,"165-E9C, 10 μg/mL, control 22512",98168 RLU
same,ATP proliferation assay,"165-F3C, 10 μg/mL, control 13157",93437 RLU
same,ATP proliferation assay,"165-F4C, 10 μg/mL, control 13598",96289 RLU
same,ATP proliferation assay,"165-F6C, 10 μg/mL, control 23457",135516 RLU
same,ATP proliferation assay,"165-F9C, 10 μg/mL, control 19736",145768 RLU
same,"Reactivity (proliferation), Mean","T-cell line 165-B6C, 1 μg/mL antigen, No Antigen 2358",3878 RLU
same,"Reactivity (proliferation), Mean","T-cell line 165-B6C, 3 μg/mL antigen, No Antigen 2358",21455 RLU
same,"Mean, ATP proliferation assay","T-cell line 165-B6C, 3 μg/mL, Day 46, after 3 days",29815 RLU
same,"Reactivity (proliferation), Mean","T-cell line 165-B6C, 10 μg/mL antigen, No Antigen 2358",32197 RLU
same,"Mean, ATP proliferation assay","T-cell line 165-B6C, 10 μg/mL, Day 46, after 3 days",34502 RLU
same,"Reactivity (proliferation), Mean","T-cell line 165-B6C, 100 μg/mL antigen, No Antigen 2358",7969 RLU
same,"Mean, ATP proliferation assay","T-cell line 165-B6C, Day 32, 10 μg/mL",952 RLU
same,"Reactivity (proliferation), Mean","T-cell line 165-B10C, 1 μg/mL antigen, No Antigen 2234",2117 RLU
same,"Reactivity (proliferation), Mean","T-cell line 165-B10C, 3 μg/mL antigen, No Antigen 2234",2519 RLU
same,"Mean, ATP proliferation assay","T-cell line 165-B10C, 3 μg/mL, Day 46, after 3 days",8450 RLU
same,"Reactivity (proliferation), Mean","T-cell line 165-B10C, 10 μg/mL antigen, No Antigen 2234",6701 RLU
same,"Mean, ATP proliferation assay","T-cell line 165-B10C, 10 μg/mL, Day 46, after 3 days",19792 RLU
same,"Reactivity (proliferation), Mean","T-cell line 165-B10C, 100 μg/mL antigen, No Antigen 2234",6215 RLU
same,"Proliferation (luminescent ATP assay), Mean","T-cell line 165-C4C, 1 μg/mL antigen, Day 66 of culture, 0 μg/mL 1881",2357
same,"Mean, ATP proliferation assay","T-cell line 165-C4C, 1 μg/mL, Day 39",11653
same,"Proliferation (luminescent ATP assay), Mean","T-cell line 165-C4C, 3 μg/mL antigen, Day 66 of culture, 0 μg/mL 1881",7913
same,"Mean, ATP proliferation assay","T-cell line 165-C4C, 3 μg/mL, Day 39",28474
same,"Proliferation (luminescent ATP assay), Mean","T-cell line 165-C4C, 10 μg/mL antigen, Day 66 of culture, 0 μg/mL 1881",74558
same,"Mean, ATP proliferation assay","T-cell line 165-C4C, 10 μg/mL, Day 39",28262
same,"Mean, ATP proliferation assay","T-cell line 165-C7C, 1 μg/mL, Day 39",3670
same,"Mean, ATP proliferation assay","T-cell line 165-C7C, 3 μg/mL, Day 39",16527
same,"Mean, ATP proliferation assay","T-cell line 165-C7C, 10 μg/mL, Day 39",40194
same,"Mean, ATP proliferation assay","T-cell line 165-D2C, 1 μg/mL, Day 39",3955
same,"Mean, ATP proliferation assay","T-cell line 165-D2C, 3 μg/mL, Day 39",7378
same,"Mean, ATP proliferation assay","T-cell line 165-D2C, 10 μg/mL, Day 39",14239
same,"Reactivity (proliferation), Mean","T-cell line 165-D3C, 1 μg/mL antigen, No Antigen 8319",22689 RLU
same,"Mean, ATP proliferation assay","T-cell line 165-D3C, 1 μg/mL, Day 46, after 3 days",1248 RLU
same,"Reactivity (proliferation), Mean","T-cell line 165-D3C, 3 μg/mL antigen, No Antigen 8319",50369 RLU
same,"Mean, ATP proliferation assay","T-cell line 165-D3C, 3 μg/mL, Day 46, after 3 days",79792 RLU
same,"Reactivity (proliferation), Mean","T-cell line 165-D3C, 10 μg/mL antigen, No Antigen 8319",52151 RLU
same,"Mean, ATP proliferation assay","T-cell line 165-D3C, 10 μg/mL, Day 46, after 3 days",86270 RLU
same,"Reactivity (proliferation), Mean","T-cell line 165-D3C, 100 μg/mL antigen, No Antigen 8319",10140 RLU
same,"Mean, ATP proliferation assay","T-cell line 165-D3C, Day 32, 10 μg/mL",3362 RLU
same,"Reactivity (proliferation), Mean","T-cell line 165-D11C, 1 μg/mL antigen, No Antigen 4571",3410 RLU
same,"Mean, ATP proliferation assay","T-cell line 165-D11C, 1 μg/mL, Day 46, after 3 days",486 RLU
same,"Reactivity (proliferation), Mean","T-cell line 165-D11C, 3 μg/mL antigen, No Antigen 4571",6618 RLU
same,"Mean, ATP proliferation assay","T-cell line 165-D11C, 3 μg/mL, Day 46, after 3 days",19410 RLU
same,"Reactivity (proliferation), Mean","T-cell line 165-D11C, 10 μg/mL antigen, No Antigen 4571",15652 RLU
same,"Mean, ATP proliferation assay","T-cell line 165-D11C, 10 μg/mL, Day 46, after 3 days",42017 RLU
same,"Reactivity (proliferation), Mean","T-cell line 165-D11C, 100 μg/mL antigen, No Antigen 4571",12958 RLU
same,"Mean, ATP proliferation assay","T-cell line 165-D11C, Day 32, 10 μg/mL",525 RLU
same,"Reactivity (proliferation), Mean","T-cell line 165-E3C, 1 μg/mL antigen, No Antigen 2797",2592 RLU
same,"Mean, ATP proliferation assay","T-cell line 165-E3C, 1 μg/mL, Day 46, after 3 days",364 RLU
same,"Reactivity (proliferation), Mean","T-cell line 165-E3C, 3 μg/mL antigen, No Antigen 2797",14394 RLU
same,"Mean, ATP proliferation assay","T-cell line 165-E3C, 3 μg/mL, Day 46, after 3 days",23785 RLU
same,"Reactivity (proliferation), Mean","T-cell line 165-E3C, 10 μg/mL antigen, No Antigen 2797",39495 RLU
same,"Mean, ATP proliferation assay","T-cell line 165-E3C, 10 μg/mL, Day 46, after 3 days",51822 RLU
same,"Reactivity (proliferation), Mean","T-cell line 165-E3C, 100 μg/mL antigen, No Antigen 2797",20538 RLU
same,"Mean, ATP proliferation assay","T-cell line 165-E3C, Day 32, 10 μg/mL",3778 RLU
same,"Reactivity (proliferation), Mean","T-cell line 165-F3C, 1 μg/mL antigen, No Antigen 3150",7777 RLU
same,"Proliferation (luminescent ATP assay), Mean","T-cell line 165-F3C, 1 μg/mL antigen, Day 77 of culture, 0 μg/mL 1563",5027
same,"Reactivity (proliferation), Mean","T-cell line 165-F3C, 3 μg/mL antigen, No Antigen 3150",36331 RLU
same,"Proliferation (luminescent ATP assay), Mean","T-cell line 165-F3C, 3 μg/mL antigen, Day 77 of culture, 0 μg/mL 1563",32906
same,"Mean, ATP proliferation assay","T-cell line 165-F3C, 3 μg/mL, Day 46, after 3 days",75407 RLU
same,"Reactivity (proliferation), Mean","T-cell line 165-F3C, 10 μg/mL antigen, No Antigen 3150",44047 RLU
same,"Proliferation (luminescent ATP assay), Mean","T-cell line 165-F3C, 10 μg/mL antigen, Day 77 of culture, 0 μg/mL 1563",62888
same,"Mean, ATP proliferation assay","T-cell line 165-F3C, 10 μg/mL, Day 46, after 3 days",85442 RLU
same,"Reactivity (proliferation), Mean","T-cell line 165-F3C, 100 μg/mL antigen, No Antigen 3150",9932 RLU
same,"Mean, ATP proliferation assay","T-cell line 165-F3C, Day 32, 10 μg/mL",1141 RLU
same,"Reactivity (proliferation), Mean","T-cell line 165-F6C, 1 μg/mL antigen, No Antigen 2189",13418 RLU
same,"Reactivity (proliferation), Mean","T-cell line 165-F6C, 3 μg/mL antigen, No Antigen 2189",38973 RLU
same,"Mean, ATP proliferation assay","T-cell line 165-F6C, 3 μg/mL, Day 46, after 3 days",31382 RLU
same,"Reactivity (proliferation), Mean","T-cell line 165-F6C, 10 μg/mL antigen, No Antigen 2189",39560 RLU
same,"Mean, ATP proliferation assay","T-cell line 165-F6C, 10 μg/mL, Day 46, after 3 days",34071 RLU
same,"Reactivity (proliferation), Mean","T-cell line 165-F6C, 100 μg/mL antigen, No Antigen 2189",4332 RLU
same,"Mean, ATP proliferation assay","T-cell line 165-F6C, Day 32, 10 μg/mL",1484 RLU
same,response in proliferation assay,"all seven Donor 3 COP T-cell lines tested, Day 54",responded well
same,reactivity in confirmatory ATP proliferation assay,"six Donor 3 COP lines, Day 32, 10 μg/mL (Table 23)",showed reactivity
